Columns and labels:
[1] = tested on: healthy subjects; assay: SAD study: safety and tolerability; type: in vivo, human
[2] = monkeys; cited from earlier work
[3] = SAD Parts A and C, fasted conditions (total TS‐134)
[4] = SAD Parts A and C, fed conditions (total TS‐134)
[5] = SAD Parts A and C, 5 mg fasted (n = 6)
[6] = SAD Parts A and C, 10 mg fasted (n = 6)
[7] = SAD Parts A and C, 10 mg fed (n = 5)
[8] = SAD Parts A and C, 20 mg fasted (n = 7)
[9] = SAD Parts A and C, 20 mg fed (n = 3)
[10] = SAD Parts A and C, Total TS‐134 fasted (n = 19)
[11] = SAD Parts A and C, Total TS‐134 fed (n = 8)
[12] = SAD, 20 mg fasted treatment group

CC(C)[C@@H]1CC[C@@H](C)C[C@H]1OC(=O)O[C@@H](C)OC(=O)[C@H]1[C@@H]2C[C@H](F)[C@@](N)(C(=O)O)[C@@H]21.O=S(=O)(O)c1ccccc1 [TS‐134, (1S,2S,3S,5R,6S)‐2‐amino‐3‐ fluoro‐6‐({(1S)‐1‐[({[(1R,2S,5R)‐5‐methyl‐2‐(propan‐2‐yl)cyclohexyl]oxy}carbonyl)oxy]ethoxy}carbonyl)bicyclo[3.1.0]hexane‐2‐carboxylic acid monobenzenesulfonate]
Insomnia ([1]; SAD Part B, 10 mg fed (n = 8)): 0 Number of subjects (%)
Nausea ([1]; SAD Part B, 10 mg fed (n = 8)): 0 Number of subjects (%)
Number of subjects with at least 1 TEAE ([1]; SAD Part B, 10 mg fed (n = 8)): 6 (75.0) Number of subjects (%)
Post lumbar puncture syndrome ([1]; SAD Part B, 10 mg fed (n = 8)): 3 (37.5) Number of subjects (%)
Pruritus ([1]; SAD Part B, 10 mg fed (n = 8)): 0 Number of subjects (%)
Somnolence ([1]; SAD Part B, 10 mg fed (n = 8)): 2 (25.0) Number of subjects (%)
Total number of TEAEs ([1]; SAD Part B, 10 mg fed (n = 8)): 10
Vomiting ([1]; SAD Part B, 10 mg fed (n = 8)): 2 (25.0) Number of subjects (%)
incidence of nausea [1, 3]: 21.1%
incidence of vomiting [1, 3]: 31.6%
incidence of headache [1, 4]: 25.0%
incidence of nausea [1, 4]: 25.0%
Abnormal dreams [1, 5]: 0 Number of subjects (%)
Dizziness [1, 5]: 0 Number of subjects (%)
Headache [1, 5]: 1 (16.7) Number of subjects (%)
Insomnia [1, 5]: 0 Number of subjects (%)
Nausea [1, 5]: 0 Number of subjects (%)
Number of subjects with at least 1 TEAE [1, 5]: 2 (33.3) Number of subjects (%)
Post lumbar puncture syndrome [1, 5]: 0 Number of subjects (%)
Pruritus [1, 5]: 0 Number of subjects (%)
Somnolence [1, 5]: 0 Number of subjects (%)
Total number of TEAEs [1, 5]: 2
Vomiting [1, 5]: 0 Number of subjects (%)
Abnormal dreams [1, 6]: 0 Number of subjects (%)
Dizziness [1, 6]: 0 Number of subjects (%)
Headache [1, 6]: 0 Number of subjects (%)
Insomnia [1, 6]: 0 Number of subjects (%)
Nausea [1, 6]: 1 (16.7) Number of subjects (%)
Number of subjects with at least 1 TEAE [1, 6]: 4 (66.7) Number of subjects (%)
Post lumbar puncture syndrome [1, 6]: 0 Number of subjects (%)
Pruritus [1, 6]: 0 Number of subjects (%)
Somnolence [1, 6]: 1 (16.7) Number of subjects (%)
Total number of TEAEs [1, 6]: 6
Vomiting [1, 6]: 2 (33.3) Number of subjects (%)
Abnormal dreams [1, 7]: 0 Number of subjects (%)
Dizziness [1, 7]: 0 Number of subjects (%)
Headache [1, 7]: 1 (20.0) Number of subjects (%)
Insomnia [1, 7]: 0 Number of subjects (%)
Nausea [1, 7]: 1 (20.0) Number of subjects (%)
Number of subjects with at least 1 TEAE [1, 7]: 3 (60.0) Number of subjects (%)
Post lumbar puncture syndrome [1, 7]: 0 Number of subjects (%)
Pruritus [1, 7]: 0 Number of subjects (%)
Somnolence [1, 7]: 0 Number of subjects (%)
Total number of TEAEs [1, 7]: 4
Vomiting [1, 7]: 1 (20.0) Number of subjects (%)
Abnormal dreams [1, 8]: 0 Number of subjects (%)
Dizziness [1, 8]: 0 Number of subjects (%)
Headache [1, 8]: 1 (14.3) Number of subjects (%)
Insomnia [1, 8]: 0 Number of subjects (%)
Nausea [1, 8]: 3 (42.9) Number of subjects (%)
Number of subjects with at least 1 TEAE [1, 8]: 5 (71.4) Number of subjects (%)
Post lumbar puncture syndrome [1, 8]: 0 Number of subjects (%)
Pruritus [1, 8]: 0 Number of subjects (%)
Somnolence [1, 8]: 0 Number of subjects (%)
Total number of TEAEs [1, 8]: 11
Vomiting [1, 8]: 4 (57.1) Number of subjects (%)
Abnormal dreams [1, 9]: 0 Number of subjects (%)
Dizziness [1, 9]: 0 Number of subjects (%)
Headache [1, 9]: 1 (33.3) Number of subjects (%)
Insomnia [1, 9]: 0 Number of subjects (%)
Nausea [1, 9]: 1 (33.3) Number of subjects (%)
Number of subjects with at least 1 TEAE [1, 9]: 1 (33.3) Number of subjects (%)
Post lumbar puncture syndrome [1, 9]: 0 Number of subjects (%)
Pruritus [1, 9]: 0 Number of subjects (%)
Somnolence [1, 9]: 0 Number of subjects (%)
Total number of TEAEs [1, 9]: 3
Vomiting [1, 9]: 0 Number of subjects (%)
Abnormal dreams [1, 10]: 0 Number of subjects (%)
Dizziness [1, 10]: 0 Number of subjects (%)
Headache [1, 10]: 2 (10.5) Number of subjects (%)
Insomnia [1, 10]: 0 Number of subjects (%)
Nausea [1, 10]: 4 (21.1) Number of subjects (%)
Number of subjects with at least 1 TEAE [1, 10]: 11(57.9) Number of subjects (%)
Post lumbar puncture syndrome [1, 10]: 0 Number of subjects (%)
Pruritus [1, 10]: 0 Number of subjects (%)
Somnolence [1, 10]: 1 (5.3) Number of subjects (%)
Total number of TEAEs [1, 10]: 19
Vomiting [1, 10]: 6 (31.6) Number of subjects (%)
Abnormal dreams [1, 11]: 0 Number of subjects (%)
Dizziness [1, 11]: 0 Number of subjects (%)
Headache [1, 11]: 2 (25.0) Number of subjects (%)
Insomnia [1, 11]: 0 Number of subjects (%)
Nausea [1, 11]: 2 (25.0) Number of subjects (%)
Number of subjects with at least 1 TEAE [1, 11]: 4 (50.0) Number of subjects (%)
Post lumbar puncture syndrome [1, 11]: 0 Number of subjects (%)
Pruritus [1, 11]: 0 Number of subjects (%)
Somnolence [1, 11]: 0 Number of subjects (%)
Total number of TEAEs [1, 11]: 7
Vomiting [1, 11]: 1 (12.5) Number of subjects (%)
reports of severe nausea [1, 12]: 1 report
reports of severe vomiting [1, 12]: 2 reports
dose up to which a single dose was tolerated ([1]; SAD, single oral dose TS‐134 solution): up to 10 mg
deaths or serious adverse events ([1]; both studies): no deaths or serious adverse events
conversion of the prodrug into MGS0008 after oral administration [2]: rapidly converted into MGS0008

— article PMC7576618 (British Journal of Clinical Pharmacology, 2020)
